Holding throughout (format): cell-based
One assay concerns the target T1, glucagon receptor (Homo sapiens, UniProt P47871).
T1 construct: expressed in transfected cells; host or cells: HEK293
Put plainly: cAMP induction, firefly luciferase-based reporter assay in HEK293 cells co-transfected with glucagon receptor. As to conditions: EC50 at Glucagon Receptor. An excerpt: (§1) This example describes an exemplary method of testing the biological activity of the peptides of the present disclosures, which method involves assaying cAMP synthesis.

The target of another assay is T2, GIP receptor (Homo sapiens, UniProt P48546).
T2 construct: expressed in transfected cells; host or cells: HEK293
T2 sequence (P48546 22-466): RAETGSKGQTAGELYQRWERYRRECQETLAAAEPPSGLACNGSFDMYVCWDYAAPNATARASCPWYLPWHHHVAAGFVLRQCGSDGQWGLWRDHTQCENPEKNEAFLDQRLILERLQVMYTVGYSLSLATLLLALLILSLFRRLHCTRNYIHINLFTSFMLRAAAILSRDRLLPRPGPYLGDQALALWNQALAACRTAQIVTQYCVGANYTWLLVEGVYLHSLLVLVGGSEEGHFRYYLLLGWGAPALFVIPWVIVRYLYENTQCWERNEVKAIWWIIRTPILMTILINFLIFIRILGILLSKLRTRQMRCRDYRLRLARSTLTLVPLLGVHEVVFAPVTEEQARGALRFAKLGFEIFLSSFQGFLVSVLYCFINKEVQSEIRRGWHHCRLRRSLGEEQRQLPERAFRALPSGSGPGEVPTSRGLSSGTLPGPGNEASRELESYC
Put plainly: cAMP induction, firefly luciferase-based reporter assay in HEK293 cells co-transfected with GIP receptor. The note with it: EC50 at GIP Receptor.
Description: as §1
(Reporter assays use an easily measured gene product as a stand-in for the process of interest.)

A further assay has as its target T3, GLP-1 receptor (Homo sapiens, UniProt P43220).
T3 construct: expressed in transfected cells; host or cells: HEK293
The assay can be described thus: cAMP induction, firefly luciferase-based reporter assay in HEK293 cells co-transfected with GLP-1 receptor. The note with it: EC50 at GLP-1 Receptor.
Description: as §1

[1] abbreviates: Table 3, analogs of SEQ ID NO: 18 varying at position 3.
Where [2] appears, read: Table 2, analogs of SEQ ID NO: 18 varying at positions 16-21.
Setting [3] is: Table 4, analogs of SEQ ID NO: 43 varying at position 3.

*1 amine or outer side, *2 acyl side, *3 side chain or, on linkers, in order; H or OH if unused. Where a SMILES comes first, the peptide text is derived from it. Side-chain parts run from the residue outwards. [ ]: non-standard residue; d: D form. The star is where a group is joined. γGlu = O=C(O)[C@H](CCC(=O)[*:2])N[*:1]; Met(O2) = CS(=O)(=O)CC[C@H](N)C(=O)O; Palmitoyl = CCCCCCCCCCCCCCCC(=O)*; hSer = N[C@@H](CCO)C(=O)O; Aib = CC(C)(N)C(=O)O

T3 sequence (P43220 24-463): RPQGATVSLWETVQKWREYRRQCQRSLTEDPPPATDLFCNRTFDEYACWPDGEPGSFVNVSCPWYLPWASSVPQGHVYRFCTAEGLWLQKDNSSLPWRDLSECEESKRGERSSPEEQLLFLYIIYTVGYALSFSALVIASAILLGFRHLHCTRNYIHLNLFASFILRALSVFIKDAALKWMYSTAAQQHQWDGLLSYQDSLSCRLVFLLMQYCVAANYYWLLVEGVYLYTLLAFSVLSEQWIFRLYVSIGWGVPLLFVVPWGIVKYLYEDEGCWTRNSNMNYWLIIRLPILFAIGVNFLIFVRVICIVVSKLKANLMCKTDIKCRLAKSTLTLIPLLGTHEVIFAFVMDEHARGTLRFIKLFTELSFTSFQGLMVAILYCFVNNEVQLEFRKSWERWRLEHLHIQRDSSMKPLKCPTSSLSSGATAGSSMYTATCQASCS
T1 sequence (P47871 26-477): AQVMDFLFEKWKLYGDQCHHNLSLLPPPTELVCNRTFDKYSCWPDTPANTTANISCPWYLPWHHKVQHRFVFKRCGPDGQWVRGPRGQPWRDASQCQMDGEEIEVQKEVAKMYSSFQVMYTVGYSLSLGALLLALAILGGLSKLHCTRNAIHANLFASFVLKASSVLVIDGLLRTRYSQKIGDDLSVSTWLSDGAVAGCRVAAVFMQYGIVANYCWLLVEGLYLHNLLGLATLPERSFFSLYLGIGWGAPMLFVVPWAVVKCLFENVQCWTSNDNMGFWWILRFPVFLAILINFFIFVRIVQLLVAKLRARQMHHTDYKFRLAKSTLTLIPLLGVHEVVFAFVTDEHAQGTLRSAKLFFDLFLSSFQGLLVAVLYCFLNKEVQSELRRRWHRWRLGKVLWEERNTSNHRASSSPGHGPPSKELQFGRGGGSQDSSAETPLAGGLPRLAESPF

Usually EC50 stands for the concentration giving half of the maximal effect. Low readings indicate greater potency, high ones weaker potency. With `CCCCCCCCCCCCCCCC(=O)N[C@@H](CCC(=O)NCCCC[C@H](NC(=O)[C@H](CC(=O)O)NC(=O)[C@H](CO)NC(=O)[C@@H](NC(=O)[C@H](Cc1ccccc1)NC(=O)[C@@H](NC(=O)CNC(=O)[C@H](C)NC(=O)C(C)(C)NC(=O)[C@@H](N)Cc1c[nH]cn1)[C@@H](C)O)[C@@H](C)O)C(=O)N[C@@H](CO)C(=O)N[C@@H](CCCCN)C(=O)N[C@@H](Cc1ccc(O)cc1)C(=O)N[C@@H](CC(C)C)C(=O)N[C@@H](CCC(=O)O)C(=O)N[C@@H](CCC(=O)O)C(=O)N[C@@H](CCCNC(=N)N)C(=O)N[C@@H](C)C(=O)N[C@@H](C)C(=O)N[C@@H](CCC(N)=O)C(=O)N[C@@H](CCC(=O)O)C(=O)N[C@@H](Cc1ccccc1)C(=O)N[C@H](C(=O)N[C@@H](CCC(N)=O)C(=O)N[C@@H](Cc1c[nH]c2ccccc12)C(=O)N[C@@H](CC(C)C)C(=O)N[C@@H](CC(C)C)C(=O)N[C@@H](CCC(=O)O)C(=O)NCC(=O)NCC(=O)N1CCC[C@H]1C(=O)N[C@@H](CO)C(=O)N[C@@H](CO)C(=O)NCC(=O)N[C@@H](C)C(=O)N1CCC[C@H]1C(=O)N1CCC[C@H]1C(=O)N1CCC[C@H]1C(=O)N[C@@H](CO)C(N)=O)C(C)C)C(=O)O` [compound 35] (H-H[Aib]AGTFTSDK([γGlu-Palmitoyl])SKYLEERAAQEFVQWLLEGGPSSGAPPPS-NH2; N-terminus assumed), the EC50 on glucagon receptor (setting [1]) is 73 pM; on GIP receptor (setting [1]), 6 pM; on GLP-1 receptor (setting [1]), 2 pM.
Turning to `CCCCCCCCCCCCCCCC(=O)N[C@@H](CCC(=O)NCCCC[C@H](NC(=O)[C@H](CC(=O)O)NC(=O)[C@H](CO)NC(=O)[C@@H](NC(=O)[C@H](Cc1ccccc1)NC(=O)[C@@H](NC(=O)CNC(=O)[C@H](CCC(N)=O)NC(=O)C(C)(C)NC(=O)[C@@H](N)Cc1c[nH]cn1)[C@@H](C)O)[C@@H](C)O)C(=O)N[C@@H](CO)C(=O)N[C@@H](CCCCN)C(=O)N[C@@H](Cc1ccc(O)cc1)C(=O)N[C@@H](CC(C)C)C(=O)N[C@@H](CC(=O)O)C(=O)NC(C)(C)C(=O)N[C@@H](CCCNC(=N)N)C(=O)N[C@@H](C)C(=O)N[C@@H](C)C(=O)NC(C)(C)C(=O)N[C@@H](CCC(=O)O)C(=O)N[C@@H](Cc1ccccc1)C(=O)N[C@H](C(=O)N[C@@H](CCC(N)=O)C(=O)N[C@@H](Cc1c[nH]c2ccccc12)C(=O)N[C@@H](CC(C)C)C(=O)N[C@@H](CC(C)C)C(=O)N[C@@H](CC(=O)O)C(=O)NCC(=O)NCC(=O)N1CCC[C@H]1C(=O)N[C@@H](CO)C(=O)N[C@@H](CO)C(=O)NCC(=O)N[C@@H](C)C(=O)N1CCC[C@H]1C(=O)N1CCC[C@H]1C(=O)N1CCC[C@H]1C(=O)N[C@@H](CO)C(N)=O)C(C)C)C(=O)O` [compound 24] (H-H[Aib]QGTFTSDK([γGlu-Palmitoyl])SKYLD[Aib]RAA[Aib]EFVQWLLDGGPSSGAPPPS-NH2), the EC50 on glucagon receptor (setting [2]) amounted to 2 pM; on GIP receptor (setting [2]), 5 pM; on GLP-1 receptor (setting [2]), 10 pM.
In the case of `CCCCCCCCCCCCCCCC(=O)N[C@@H](CCC(=O)NCCCC[C@H](NC(=O)[C@H](CC(=O)O)NC(=O)[C@H](CO)NC(=O)[C@@H](NC(=O)[C@H](Cc1ccccc1)NC(=O)[C@@H](NC(=O)CNC(=O)[C@H](CCS(C)(=O)=O)NC(=O)C(C)(C)NC(=O)[C@@H](N)Cc1c[nH]cn1)[C@@H](C)O)[C@@H](C)O)C(=O)N[C@@H](CO)C(=O)N[C@@H](CCCCN)C(=O)N[C@@H](Cc1ccc(O)cc1)C(=O)N[C@@H](CC(C)C)C(=O)N[C@@H](CCC(=O)O)C(=O)N[C@@H](CCC(=O)O)C(=O)N[C@@H](CCCNC(=N)N)C(=O)N[C@@H](C)C(=O)N[C@@H](C)C(=O)N[C@@H](CCC(N)=O)C(=O)N[C@@H](CCC(=O)O)C(=O)N[C@@H](Cc1ccccc1)C(=O)N[C@H](C(=O)N[C@@H](CCC(N)=O)C(=O)N[C@@H](Cc1c[nH]c2ccccc12)C(=O)N[C@@H](CC(C)C)C(=O)N[C@@H](CC(C)C)C(=O)N[C@@H](CCC(=O)O)C(=O)NCC(=O)NCC(=O)N1CCC[C@H]1C(=O)N[C@@H](CO)C(=O)N[C@@H](CO)C(=O)NCC(=O)N[C@@H](C)C(=O)N1CCC[C@H]1C(=O)N1CCC[C@H]1C(=O)N1CCC[C@H]1C(=O)N[C@@H](CO)C(N)=O)C(C)C)C(=O)O` [compound 41] (H-H[Aib][Met(O2)]GTFTSDK([γGlu-Palmitoyl])SKYLEERAAQEFVQWLLEGGPSSGAPPPS-NH2; N-terminus assumed), the EC50 on glucagon receptor (setting [1]) stood at 592 pM; on GIP receptor (setting [1]) it was 67 pM; on GLP-1 receptor (setting [1]), 2 pM.
Regarding `CCCCCCCCCCCCCCCC(=O)N[C@@H](CCC(=O)NCCCC[C@H](NC(=O)[C@H](CC(=O)O)NC(=O)[C@H](CO)NC(=O)[C@@H](NC(=O)[C@H](Cc1ccccc1)NC(=O)[C@@H](NC(=O)CNC(=O)[C@H](CCO)NC(=O)C(C)(C)NC(=O)[C@@H](N)Cc1c[nH]cn1)[C@@H](C)O)[C@@H](C)O)C(=O)N[C@@H](CO)C(=O)N[C@@H](CCCCN)C(=O)N[C@@H](Cc1ccc(O)cc1)C(=O)N[C@@H](CC(C)C)C(=O)N[C@@H](CC(=O)O)C(=O)N[C@@H](CCC(=O)O)C(=O)N[C@@H](CCCNC(=N)N)C(=O)N[C@@H](C)C(=O)N[C@@H](C)C(=O)N[C@@H](CCC(N)=O)C(=O)N[C@@H](CC(=O)O)C(=O)N[C@@H](Cc1ccccc1)C(=O)N[C@H](C(=O)N[C@@H](CCC(N)=O)C(=O)N[C@@H](Cc1c[nH]c2ccccc12)C(=O)N[C@@H](CC(C)C)C(=O)N[C@@H](CC(C)C)C(=O)N[C@@H](CCC(=O)O)C(=O)NCC(=O)NCC(=O)N1CCC[C@H]1C(=O)N[C@@H](CO)C(=O)N[C@@H](CO)C(=O)NCC(=O)N[C@@H](C)C(=O)N1CCC[C@H]1C(=O)N1CCC[C@H]1C(=O)N1CCC[C@H]1C(=O)N[C@@H](CO)C(N)=O)C(C)C)C(=O)O` [compound 48] (H-H[Aib][hSer]GTFTSDK([γGlu-Palmitoyl])SKYLDERAAQDFVQWLLEGGPSSGAPPPS-NH2), the EC50 is 16 pM at glucagon receptor (setting [3]), 4 pM at GIP receptor (setting [3]) and 3 pM at GLP-1 receptor (setting [3]).
Regarding `CCCCCCCCCCCCCCCC(=O)N[C@@H](CCC(=O)NCCCC[C@H](NC(=O)[C@H](CC(=O)O)NC(=O)[C@H](CO)NC(=O)[C@@H](NC(=O)[C@H](Cc1ccccc1)NC(=O)[C@@H](NC(=O)CNC(=O)[C@H](CCC(N)=O)NC(=O)C(C)(C)NC(=O)[C@@H](N)Cc1c[nH]cn1)[C@@H](C)O)[C@@H](C)O)C(=O)N[C@@H](CO)C(=O)N[C@@H](CCCCN)C(=O)N[C@@H](Cc1ccc(O)cc1)C(=O)N[C@@H](CC(C)C)C(=O)N[C@@H](CC(=O)O)C(=O)N[C@@H](CCC(=O)O)C(=O)N[C@@H](CCCNC(=N)N)C(=O)N[C@@H](C)C(=O)NC(C)(C)C(=O)N[C@@H](CCCCN)C(=O)N[C@@H](CCC(=O)O)C(=O)N[C@@H](Cc1ccccc1)C(=O)N[C@H](C(=O)N[C@@H](CCC(N)=O)C(=O)N[C@@H](Cc1c[nH]c2ccccc12)C(=O)N[C@@H](CC(C)C)C(=O)N[C@@H](CC(C)C)C(=O)N[C@@H](CC(=O)O)C(=O)NCC(=O)NCC(=O)N1CCC[C@H]1C(=O)N[C@@H](CO)C(=O)N[C@@H](CO)C(=O)NCC(=O)N[C@@H](C)C(=O)N1CCC[C@H]1C(=O)N1CCC[C@H]1C(=O)N1CCC[C@H]1C(=O)N[C@@H](CO)C(N)=O)C(C)C)C(=O)O` [compound 27] (H-H[Aib]QGTFTSDK([γGlu-Palmitoyl])SKYLDERA[Aib]KEFVQWLLDGGPSSGAPPPS-NH2), the 50% effective concentration (EC50) on glucagon receptor (setting [2]) is 165 pM; at GIP receptor (setting [2]), 4 pM; on GLP-1 receptor (setting [2]) it was 2 pM.

The values are drawn from US9340600B2 (Indiana University Research and Technology Corporation, priority 2012, dated 2016).
